Measurements: US10240124B2, “Cell culture substrate comprising a laminin and a cadherin” (BioLamina AB, priority 2011, dated 2019)

Assays:
[1] = system: human embryonic stem cells; test: Survival of hES cells plated in single cell suspension on precoated dishes (description); format: cell-based; settings: O3 medium, 30 Kcells/cm^2
Text: In other aspects, the present disclosure provides a new material, isolated laminin-521, which permits human embryonic stem cell survival after dissociation into single cell suspension. The stem cells were dissociated into single cell suspension by Trypsin-EDTA treatment, pelleted by centrifugation, resuspended into O3 medium, filtered through a 40 μm sieve, and plated at a density of 30 Kcells/cm^2 on cell culture dishes precoated by either isolated laminin-521, laminin-511, or Matrigel. After one day in culture, the cells plated on Matrigel died, as is known in the art.

ES cells = test: Embryoid body formation; format: cell-based, human; settings: same three cultures as teratoma test
Description: ES cells from LN-521 coated cell culture dishes were exposed to TrypLE™Select for one minute at 37° C., 5% CO2, washes two times with a medium, broken into large pieces and cultured in suspension in low adhesion plates. The medium used for this was Knockout DMEM (GIBCO Invitrogen Corporation) supplemented with 2 mM L-glutamine, 20% fetal calf serum (GIBCO Invitrogen Corporation), 0.1 mM β-mercaptoethanol (GIBCO Invitrogen Corporation) and 1% non-essential amino acids (GIBCO Invitrogen Corporation). After 1-2 weeks in suspension, the embryoid bodies were transferred onto gelatin coated tissue cell culture 96-well plates (Sarstedt), cultured for 1-2 weeks, then fixed, stained with antibodies against markers of all three embryonic germ line layers (smooth muscle actin, MAP-2 and α-fetoprotein) and analyzed as described above for immunofluorescence.

Human ES cells [2] = test: FACS analysis for OCT4 (Example 1); format: cell-based; settings: after several single cell suspension passages, O3 medium, FIG. 9 and 10
Description: OCT4 expression was analyzed as described in Ludwig, T. E. et al. Derivation of human embryonic stem cells in defined conditions. Nat. Biotechnol. 24, 185-187 (2006). Cells were run on FACSCalibur Flow Cytometer (Becton Dickinson). Data were analyzed with CellQuest software (Becton Dickinson).

Human ES cells [3] = test: Expansion of hES cells on r-laminin-521 with single cell dissociation passaging (Example 1); format: cell-based
Text: In further aspects, the present disclosure provides a method to expand human embryonic stem cells in pluripotent state. It has been shown that human embryonic stem cells plated in single cell suspension on laminin-521 survived and proliferated at a higher rate than that of classical methods known in the art. After 3 passages (1 month) the cells passaged in a single cell suspension underwent the same number of cell divisions as that of cell cultures passaged in pieces on Matrigel after 20 passages (3 months). Therefore, the new method was advantageous in terms of time and labor, which may provide significant economical profits.
Human ES cells were cultured on r-laminin-521-coated laboratory dishes in chemically defined O3 medium (described in Rodin et al., Nature Biotechnol., vol. 28, pp. 611-615 (2010)) at 37° C. in 5% CO2. Cells were routinely passed once every 10-12 days by exposure to Trypsin-EDTA solution (GIBCO Invitrogen) for 5 minutes at 37° C. They were then gently pipetted to break into single-cell suspension and defined trypsin inhibitor (GIBCO Invitrogen) was added. The cell suspension was centrifuged […], the supernatant discarded, the cell pellet resuspended in prewarmed O3 medium, and cells were then passed through a 40 μm sieve. After that cells were plated on new r-laminin-521-coated dishes at a concentration 30 Kcells/cm^2 (1:25-1:30 split ratio). Cells were fed once a day with fresh medium prewarmed in an incubator for 1 hour, except for the first day after a passage, when only a few drops of fresh medium were added. Control cells of the same line were cultured on Matrigel (BD Biosciences) in O3 medium as described in Rodin et al., Nature Biotechnol., vol. 28, pp. 611-615 (2010). Control cells were passaged in pieces.

[4] = system: human pluripotent cells (HS181, HS401, H1, ChiPSW, CutB1.2); test: Long-term self-renewal culture of hES and iPS cells on LN-521 (Example 2); format: cell-based; settings: for passages of proliferation on LN-521: O3 medium
human ES cells (HS181) = test: Cell adhesion assay, Crystal Violet (Example 1); format: cell-based
Description: Ninety-six-well tissue cell culture plates were coated overnight at 4° C. with sterile solutions of the ECM proteins mouse LN-111 (Invitrogen), human recombinant LN-511, and human recombinant LN-521, all at a concentration of 30 μg/ml (5 μg/cm^2). For control cells, BD Matrigel™ hESC qualified (BD Biosciences) was used according to the manufacturer's instructions.
The assay was performed as described (Extracellular Matrix Protocols, 2000). Briefly, 96-well plates were coated by extracellular matrix proteins as described above and blocked by O3 medium containing bovine serum albumin. The ES cells were plated at a cell density of 600 cell/mm^2 upon extracellular matrix-coated plates and were left to adhere for either 1 hour or 1 day at the cell incubator. Non-adherent cells were washed away, and adherent cells were fixed for 20 min by 5% glutaraldehyde, stained by 0.1% Crystal Violet.

Substance: LN-521: protein formed by joining α5, β2 and γ1 laminin chains; human recombinant, produced in HEK293 cells
- survival of human embryonic stem cells after one day in culture [1]: survived and started to proliferate
- differentiation in vitro, embryoid bodies expressing markers of mesoderm, ectoderm and endoderm (ES cells): retained the competence to form embryoid bodies
- percentage of Oct4 positive (pluripotent) cells compared with Matrigel (Human ES cells [2]): much higher percentage
- passages in single cell suspension giving the same number of cell divisions as cultures passaged in pieces on Matrigel after 20 passages (3 months) (Human ES cells [3]; 1 month): 3 passages
- passages to the same number of cell doublings as stem cells after 20 passages (100 days) by conventional methods (Human ES cells [3]; 1 month, FIG. 8): 3 passages
- increase in the number of cells versus time compared with Matrigel (Human ES cells [3]; FIG. 8): much faster rate
- proliferation rate compared with classical methods (Human ES cells [3]; plated in single cell suspension): higher rate
- passages of robust proliferation at a stable and high rate (Human ES cells [3]; single cell passaging every 10-12 days, 1:25 to 1:30, 3 months): at least 9 passages
- passages cultured on LN-521 ([4]; ChiPSW iPS cells, mTeSR1): 3 passages
- passages cultured on LN-521 ([4]; CutB1.2 iPS cells, mTeSR1): 5 passages
- passages of proliferation on LN-521 ([4]; H1 cells, 6 months): ≥ 15 passages
- passages cultured on LN-521 ([4]; H1 cells, TeSR2, xeno-free, 5 months): 12 passages
- passages of proliferation on LN-521 ([4]; HS181 cells, 9 months): at least 24 passages
- passages of proliferation on LN-521 ([4]; HS401 cells, 2 months): ≥ 5 passages
- passages cultured on LN-521 ([4]; HS401 cells, TeSR2, xeno-free, 1.5 months): 4 passages
- adhesion at 1 day without additives compared with all dishes including the ROCK inhibitor (human ES cells (HS181); FIG. 7): similar
- cells remaining attached / surviving 24 hours after plating (human ES cells (HS181); HS181 completely dissociated, O3 medium without any additives, FIG. 4): survived
- adhesion of human ES cells at 1 hour (human ES cells (HS181); O3 medium without any additives, without Y-27632, FIG. 6): roughly the same
- adhesion at 1 day relative to Matrigel without additives (human ES cells (HS181); without additives, FIG. 7): 20 times
